# Assay results reported in BindingDB's records for doi:10.1016/j.bmcl.2004.12.068 (Pharmacor, 2005).
# Where a name gives a salt, the structure may show the parent alone.
# Target: T1, Dimer of Gag-Pol polyprotein [501-599] (Human immunodeficiency virus 1, UniProt P03367)
# T1 construct: 501-599
# Assay: Protease Inhibition Assay
# Details: not given
# Protocol: HIV-1 protease activity was measured by a continuous fluorometric assay using the internally quenched fluorogenic substrate DABCYL-Ser-Gln-Asn-Tyr-Pro-Ile-Val-Gln-EDANS. The proteolytic activity can be monitored by the increase in fluorescence intensity, and the protease products were analyzed by HPLC.
row,Compound,Ki
1,Cc1ccc(S(=O)(=O)N(CC(C)C)[C@@H](CCCCCNC(=O)OCC2c3ccccc3-c3ccccc32)C(=O)O)cc1 [(2S)-7-{[(9H-fluoren-9-ylmethoxy)carbonyl]amino}-2-[(4-methylbenzene)(2-methylpropyl)sulfonamido]heptanoic acid],> 250 nM
2,Cc1ccc(S(=O)(=O)N(CC(C)C)[C@@H](CCCCNC(=O)OCC2c3ccccc3-c3ccccc32)C(=O)NN)cc1 [9H-fluoren-9-ylmethyl N-[(5S)-5-(hydrazinecarbonyl)-5-[(4-methylbenzene)(2-methylpropyl)sulfonamido]pentyl]carbamate],254 nM
3,Cc1ccc(S(=O)(=O)N(CC(C)C)[C@@H](CCCCNC(=O)OCC2c3ccccc3-c3ccccc32)C(N)=S)cc1 [9H-fluoren-9-ylmethyl N-[(5S)-5-carbamothioyl-5-[(4-methylbenzene)(2-methylpropyl)sulfonamido]pentyl]carbamate],127 nM
4,COC(=O)[C@H](CCCCNC(=O)OCC1c2ccccc2-c2ccccc21)N(CC(C)C)S(=O)(=O)c1ccc(C)cc1 [methyl (2S)-6-{[(9H-fluoren-9-ylmethoxy)carbonyl]amino}-2-[(4-methylbenzene)(2-methylpropyl)sulfonamido]hexanoate],> 300 nM
5,CC(C)CN(C(=O)c1ccccc1)[C@@H](CCCCNC(=O)OCC1c2ccccc2-c2ccccc21)C(=O)O [(2S)-6-{[(9H-fluoren-9-ylmethoxy)carbonyl]amino}-2-[N-(2-methylpropyl)phenylformamido]hexanoic acid],> 300 nM
6,Cc1ccc(S(=O)(=O)N(CC(C)C)[C@@H](CCCCNC(=O)OCC2c3ccccc3-c3ccccc32)C(=O)NO)cc1 [9H-fluoren-9-ylmethyl N-[(5S)-5-(hydroxycarbamoyl)-5-[(4-methylbenzene)(2-methylpropyl)sulfonamido]pentyl]carbamate],245 nM
7,Cc1ccc(S(=O)(=O)N(CC(C)C)[C@H](CO)CCCCNC(=O)OCC2c3ccccc3-c3ccccc32)cc1 [9H-fluoren-9-ylmethyl N-[(5S)-6-hydroxy-5-[(4-methylbenzene)(2-methylpropyl)sulfonamido]hexyl]carbamate],105 nM
8,Cc1ccc(S(=O)(=O)N(CC(C)C)[C@@H](CCCCNC(=O)OCC2c3ccccc3-c3ccccc32)C(=N)N)cc1 [9H-fluoren-9-ylmethyl N-[(5S)-5-carbamimidoyl-5-[(4-methylbenzene)(2-methylpropyl)sulfonamido]pentyl]carbamate],280 nM
9,Cc1ccc(S(=O)(=O)N(CC(C)C)[C@@H](CCCCNC(=O)OCC2c3ccccc3-c3ccccc32)C(N)=O)cc1 [9H-fluoren-9-ylmethyl N-[(5S)-5-carbamoyl-5-[(4-methylbenzene)(2-methylpropyl)sulfonamido]pentyl]carbamate],107 nM
10,Cc1ccc(S(=O)(=O)N(CC(C)C)[C@@H](CCCCNC(=O)OC(C)(C)C)C(=O)O)cc1 [(2S)-6-{[(tert-butoxy)carbonyl]amino}-2-[(4-methylbenzene)(2-methylpropyl)sulfonamido]hexanoic acid],> 250 nM
11,Cc1ccc(S(=O)(=O)N(CC(C)C)[C@H](CN)CCCCNC(=O)OCC2c3ccccc3-c3ccccc32)cc1 [9H-fluoren-9-ylmethyl N-[(5S)-6-amino-5-[(4-methylbenzene)(2-methylpropyl)sulfonamido]hexyl]carbamate hydrochloride],> 300 nM
12,"Cc1ccc(S(=O)(=O)N(CC(C)C)[C@@H](CCCCNC(=O)OCC2c3ccccc3-c3ccccc32)c2nnn[nH]2)cc1 [9H-fluoren-9-ylmethyl N-[(5S)-5-[(4-methylbenzene)(2-methylpropyl)sulfonamido]-5-(1H-1,2,3,4-tetrazol-5-yl)pentyl]carbamate]",> 300 nM
13,Cc1ccc(S(=O)(=O)N(CC(C)C)[C@@H](CCCCNC(=O)C2c3ccccc3-c3ccccc32)C(=O)O)cc1 [(2S)-6-(9H-fluoren-9-ylformamido)-2-[(4-methylbenzene)(2-methylpropyl)sulfonamido]hexanoic acid],105 nM
14,Cc1ccc(S(=O)(=O)N(CC(C)C)[C@@H](CCNC(=O)OCC2c3ccccc3-c3ccccc32)C(=O)O)cc1 [(2S)-4-{[(9H-fluoren-9-ylmethoxy)carbonyl]amino}-2-[(4-methylbenzene)(2-methylpropyl)sulfonamido]butanoic acid],> 250 nM
15,Cc1ccc(S(=O)(=O)N(CC(C)C)[C@H](C=O)CCCCNC(=O)OCC2c3ccccc3-c3ccccc32)cc1 [9H-fluoren-9-ylmethyl N-[(5S)-5-[(4-methylbenzene)(2-methylpropyl)sulfonamido]-6-oxohexyl]carbamate],> 300 nM
16,Cc1ccc(S(=O)(=O)N(CC(C)C)[C@@H](CNC(=O)OCC2c3ccccc3-c3ccccc32)C(=O)O)cc1 [(2S)-3-{[(9H-fluoren-9-ylmethoxy)carbonyl]amino}-2-[(4-methylbenzene)(2-methylpropyl)sulfonamido]propanoic acid],> 250 nM

# Same assay, conditions: pH 4.7; 30 °C
row,Compound,Ki
1,Cc1ccc(S(=O)(=O)N(CCCC[C@H](NC(=O)OCC2c3ccccc3-c3ccccc32)C(=O)O)CC(C)C)cc1 [(2S)-2-{[(9H-fluoren-9-ylmethoxy)carbonyl]amino}-6-[(4-methylbenzene)(2-methylpropyl)sulfonamido]hexanoic acid],2000 nM
2,Cc1ccc(S(=O)(=O)NCCC[C@H](NC(=O)OCC2c3ccccc3-c3ccccc32)C(=O)O)cc1 [(2S)-2-{[(9H-fluoren-9-ylmethoxy)carbonyl]amino}-5-[(4-methylbenzene)sulfonamido]pentanoic acid],26200 nM
3,Cc1ccc(S(=O)(=O)N(CC(C)C)[C@@H](CCCCNC(=O)OCC2c3ccccc3-c3ccccc32)C(=O)O)cc1 [(2S)-6-{[(9H-fluoren-9-ylmethoxy)carbonyl]amino}-2-[(4-methylbenzene)(2-methylpropyl)sulfonamido]hexanoic acid],5 nM
4,CC(C)(C)OC(=O)NCCCC[C@H](NC(=O)OCc1ccccc1)C(=O)O [(2S)-2-{[(benzyloxy)carbonyl]amino}-6-{[(tert-butoxy)carbonyl]amino}hexanoic acid],> 100000 nM
5,Cc1ccc(S(=O)(=O)N[C@@H](CCCCNC(=O)OC(C)(C)C)C(=O)O)cc1 [(2S)-6-{[(tert-butoxy)carbonyl]amino}-2-[(4-methylbenzene)sulfonamido]hexanoic acid],> 100000 nM
